Data as given in US9724408B2, “Compositions and methods for activating stimulator of interferon gene-dependent signalling” (ADURO BIOTECH, INC., priority 2013, dated 2017).

How the values were obtained:
[1] = tested on: snake venom phosphodiesterase (SVPD)
Nuclease P1 (NP1) = biological target: T1, Nuclease P1 (NP1) (Penicillium citrinum, UniProt P24289); test: Resistance to Nuclease P1, read out in THP1-Blue ISG cells; conditions: 2.5 mU NP1, 2 hr at 37° C., then 50 μM on THP1-Blue ISG cells, FIG. 12
T1 sequence (P24289 1-270): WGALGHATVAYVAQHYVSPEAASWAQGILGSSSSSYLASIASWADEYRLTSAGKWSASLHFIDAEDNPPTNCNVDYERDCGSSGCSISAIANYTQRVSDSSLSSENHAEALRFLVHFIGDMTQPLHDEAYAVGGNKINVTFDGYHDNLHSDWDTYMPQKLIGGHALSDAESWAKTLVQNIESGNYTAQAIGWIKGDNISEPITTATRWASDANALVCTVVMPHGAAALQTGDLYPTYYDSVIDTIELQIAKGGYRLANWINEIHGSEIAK

hSTING (REF) = biological target: T2, hSTING (REF) (Homo sapiens, UniProt Q86WV6); test: IFNβ-LUC reporter in HEK293T cells expressing hSTING (REF); assay type: cell-based; conditions: 10 μM, digitonin permeabilization, 6 hrs, FIG. 14
T2 construct: GFP; expressed in transfected cells; plasmid from the Vance Laboratory, UC Berkeley
Experimental: MSCV2.2 plasmids encoding hSTING(REF)-GFP, hSTING(WT)-GFP, hSTING(HAQ)-GFP, hSTING(Q)-GFP and mSTING(WT)-GFP were obtained from the Vance Laboratory at UC Berkeley. hSTING(AQ)-GFP was derived from hSTING(Q)-GFP using a QuickChange Site-Directed Mutagenesis kit (Stratagene). […] 1×10^4 HEK293T STING cells were seeded in 96-well plates and transiently transfected (using Lipofectamine 2000) with 50 ng of a human IFN-β reporter plasmid (pLuc-IFN-β) expressing the human IFN-β promoter upstream of a luciferase reporter and 10 ng of TK-renilla for normalization. 24 hours later, cells were stimulated with native and synthetic CDN derivative molecules using digitonin permeabalization to ensure uniform uptake. Each STING cell line was stimulated with 10 μM of cyclic [G(3′,5′)pA(3′,5′)p] (cGAMP), cyclic [G(2′,5′)pA(3′,5′)p] […] (RR-CDA), cyclic [A(2′,5′)pA(3′,5′)p] […] (RR-CDG), cyclic [G(2′,5′)pG(3′,5′)p] […] (ML RR-CDG) in 25 ul digitonin buffer (50 mM HEPES, 100 mM KCL, 3 mM MgCl2, 0.1 mM DTT, 85 mM Sucrose, 0.2% BSA, 1 mM ATP, 0.1 mM GTP, 10 ug/ml digitonin). After 20 min, the stimulation mixtures were removed and 200 ul of standard RPMI media was added. After stimulation for 6 hrs, cell lysates were prepared and reporter gene activity measured using the Dual Luciferase Assay System (Promega) on a Spectramax M3 luminometer.

hSTING (Q) = test: IFNβ-LUC reporter in HEK293T cells expressing hSTING (Q); assay type: cell-based, human; conditions: 10 μM, digitonin permeabilization, 6 hrs, FIG. 14
Excerpt: To determine the responsiveness of the five known natural human STING variants (referred to as WT, REF, HAQ, AQ and Q) to the native and derivative molecules, a panel of human embryonic kidney (HEK) 293T cell lines that expressed the human STING alleles was generated. […] MSCV2.2 plasmids encoding hSTING(REF)-GFP, hSTING(WT)-GFP, hSTING(HAQ)-GFP, hSTING(Q)-GFP and mSTING(WT)-GFP were obtained from the Vance Laboratory at UC Berkeley. hSTING(AQ)-GFP was derived from hSTING(Q)-GFP using a QuickChange Site-Directed Mutagenesis kit (Stratagene). The sequence of the hSTING(REF) allele is also known as the Barber allele (Ishikawa, H., and Barber, G. N. (2008). Nature 455, 674-678), and has the NCBI Reference Sequence NP_938023.1. The amino acid difference between hSTING(REF) and the other WT, HAQ, AQ and Q human STING alleles are shown in FIG. 13, which is adapted from Yi et al., Plos One 8: e77846 (2013). Stable HEK 293T-derived cell lines expressing each of the individual human STING alleles were generated by FACS sorting of GFP positive cells using a Mo Flo cell sorter at the Cancer Research Laboratory Flow Cytometry Facility at UC Berkeley. 1×10^4 HEK293T STING cells were seeded in 96-well plates and transiently transfected (using Lipofectamine 2000) with 50 ng of a human IFN-β reporter plasmid (pLuc-IFN-β) expressing the human IFN-β promoter upstream of a luciferase reporter and 10 ng of TK-renilla for normalization. 24 hours later, cells were stimulated with native and synthetic CDN derivative molecules using digitonin permeabalization to ensure uniform uptake. Each STING cell line was stimulated with 10 μM of cyclic [G(3′,5′)pA(3′,5′)p] (cGAMP), cyclic [G(2′,5′)pA(3′,5′)p] (ML-cGAMP), Rp, Rp dithio cyclic [G(2′,5′)pA(3′,5′)p] […] (CDA), Rp, Rp dithio cyclic [A(3′,5′)pA(3′,5′)p] (RR-CDA), cyclic [A(2′,5′)pA(3′,5′)p] (ML-CDA), Rp, Rp dithio cyclic [A(2′,5′)pA(3′,5′)p] (ML RR-CDA), cyclic [G(3′,5′)pG(3′,5′)p] (CDG), Rp, Rp dithio cyclic [G(3′,5′)pG(3′,5′)p] (RR-CDG), cyclic [G(2′,5′)pG(3′,5′)p] (ML-CDG) or Rp, Rp dithio cyclic [G(2′,5′)pG(3′,5′)p] (ML RR-CDG) in 25 ul digitonin buffer (50 mM HEPES, 100 mM KCL, 3 mM MgCl2, 0.1 mM DTT, 85 mM Sucrose, 0.2% BSA, 1 mM ATP, 0.1 mM GTP, 10 ug/ml digitonin). After 20 min, the stimulation mixtures were removed and 200 ul of standard RPMI media was added. After stimulation for 6 hrs, cell lysates were prepared and reporter gene activity measured using the Dual Luciferase Assay System (Promega) on a Spectramax M3 luminometer.

THP1-Blue™ ISG cells = test: Type I interferon induction in THP1-Blue ISG reporter cells (QUANTI-Blue, A655); assay type: cell-based, human; conditions: 50 μM, mock treated, 16 hr incubation, FIG. 12
Experimental: To determine the relative level of type I interferon induced in human cells by each of the native and derivative molecules as a signature of adjuvant potency, 4×10^5 THP1-Blue™ ISG cells (a human monocyte cell line transfected with an IRF-inducible secreted embryonic alkaline phosphatase reporter gene (Invivogen) which express alkaline phosphatase under the control of a promoter comprised of five IFN-stimulated response elements) were incubated with 100 μM of cyclic [G(3′,5′)pG(3′,5′)p] (CDG), cyclic [G(2′,5′)pG(3′,5′)p] (mixed linkage, or ML-CDG), or HBSS for 30 minutes at 37° C. with 5% CO2. After 30 minutes, cells were washed and plated in 96-well dish in RPMI media containing 10% FBS, and incubated at 37° C. with 5% CO2. Cell culture supernatants from each sample were collected after overnight incubation, and 20 μL of the cell culture supernatants was added to 180 μL QUANTI-Blue reagent (Invivogen) and incubated for 45 minutes to evaluate type I interferon protein levels. Readings at Absorbance 655 nm were taken every 3 minutes using a Versa Max kinetic spectrophotometer (Molecular Diagnostics).
[…]. After 30 minutes, cells were washed and plated in 96-well dish in RPMI media containing 10% FBS, and incubated at 37° C. with 5% CO2. Cell culture supernatants from each sample were collected after overnight incubation, and 20 μL of the cell culture supernatants was added to 180 μL QUANTI-Blue reagent (Invivogen) and incubated for 45 minutes. Readings at Absorbance 655 nm were taken at 15 minutes using a SpectraMax spectrophotometer (Molecular Diagnostics).
The induction of type I interferon in human cells was measured to evaluate the potency of untreated and phosphodiesterase-treated oxo, Rp monothio and Rp, Rp dithio derivatives. […]. After 30 minutes, cells were washed and plated in a 96-well dish in RPMI media containing 10% FBS, and incubated at 37° C. with 5% CO2. Cell culture supernatants from each sample were collected after 16 hr incubation, and 20 μL of the cell culture supernatants was added to 180 μL QUANTI-Blue reagent (Invivogen) and incubated for 25 minutes to evaluate type I interferon protein levels. Readings at Absorbance 655 nm were measured with a Versa Max spectrophotometer (Molecular Diagnostics).

T2 sequence (Q86WV6 whole entry): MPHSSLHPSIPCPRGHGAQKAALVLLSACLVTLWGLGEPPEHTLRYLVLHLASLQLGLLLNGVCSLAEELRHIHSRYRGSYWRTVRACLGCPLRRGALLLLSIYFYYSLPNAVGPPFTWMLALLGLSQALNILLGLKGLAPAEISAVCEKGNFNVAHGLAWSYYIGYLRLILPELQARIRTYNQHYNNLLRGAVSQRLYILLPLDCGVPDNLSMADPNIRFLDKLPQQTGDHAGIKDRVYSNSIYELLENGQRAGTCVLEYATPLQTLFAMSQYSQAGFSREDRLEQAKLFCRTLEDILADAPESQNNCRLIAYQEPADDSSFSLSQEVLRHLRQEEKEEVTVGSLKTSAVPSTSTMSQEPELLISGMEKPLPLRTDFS

Compound	type I interferon inducing activity after SVPD treatment [1]	type I interferon inducing activity after NP1 treatment (Nuclease P1 (NP1))	IFNβ reporter response of hSTING (REF) (hSTING (REF))	IFNβ reporter response of hSTING (Q) (hSTING (Q))	induction of type I interferon, untreated compounds (THP1-Blue™ ISG cells)
Nc1ncnc2c1ncn2[C@@H]1O[C@@H]2COP(=O)(O)O[C@H]3[C@@H](O)[C@H](n4cnc5c(N)ncnc54)O[C@@H]3COP(=O)(O)O[C@H]2[C@H]1O [CDA, cyclic[A(3′,5′)pA(3′,5′)p], reference compound]	lost activity	lost activity	responded poorly	responded poorly	
Nc1ncnc2c1ncn2C1OC2COP(=O)(O)OC3C(O)C(COP(=O)(S)OC2C1O)OC3n1cnc2c(N)ncnc21 (stereo not drawn) [ML R-CDA, monothio-cyclic-[A(2′,5′)pA(3′,5′)Rp]]	susceptible to SVPD treatment	retained activity after NP1 digestion			
Nc1nc2c(ncn2[C@@H]2O[C@@H]3COP(=O)(S)O[C@H]4[C@@H](O)[C@H](n5cnc6c(N)ncnc65)O[C@@H]4CO[P@@](=O)(S)O[C@@H]2[C@@H]3O)c(=O)[nH]1 (stereo partly drawn) [ML RR-cGAMP, dithio-[RP,RP]-cyclic-[G(2′,5′)pA(3′,5′)p]]				responsive to stimulation	
Nc1ncnc2c1ncn2C1OC2COP(=O)(O)OC3C(O)C(COP(=O)(O)OC2C1O)OC3n1cnc2c(N)ncnc21 (stereo not drawn) [ML-CDA, cyclic-[A(2′,5′)pA(3′,5′)p]]	lost activity	lost activity			
Nc1ncnc2c1ncn2[C@@H]1O[C@@H]2CO[P@@](O)(=S)O[C@H]3[C@@H](O)[C@H](n4cnc5c(N)ncnc54)O[C@@H]3CO[P@@](O)(=S)O[C@H]2[C@H]1O [RR-CDA, Rp, Rp dithio cyclic [A(3′,5′)pA(3′,5′)p], reference compound]	retain their potency	retain their potency			more potent inducers of type I interferon than the oxo
Nc1nc2c(ncn2[C@@H]2O[C@@H]3COP(=O)(O)O[C@H]4[C@@H](O)[C@H](n5cnc6c(N)ncnc65)O[C@@H]4COP(=O)(O)O[C@H]3[C@H]2O)c(=O)[nH]1 [cGAMP, cyclic [G(3′,5′)pA(3′,5′)p], reference compound]				responded poorly	
cyclic [CDG, cyclic [G(3′,5′)pG(3′,5′)p], reference compound]			responded poorly	responded poorly	
